# Data: PubChem BioAssay (NCI)
#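 Where inhibition never reached the appropriate level, the endpoint shown equals the highest concentration tested. Otherwise, values were interpolated linearly from a five-concentration, 48-hour dose response in 96-well plates. The concentration for 50% growth inhibition is given as GI50. Definition used: TGI = concentration required for complete inhibition of growth.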
# Assays:
# Test in all cases: NCI tumour cell line growth inhibition, 48 h
# [1] = system: 786-0 renal
# [2] = system: A498 renal
# [3] = system: A549 NSCLC
# [4] = system: ACHN renal
# [5] = system: BT-549 breast
# [6] = system: CAKI-1 renal
# [7] = system: CCRF-CEM leukemia
# [8] = system: COLO 205 colon
# [9] = system: DU-145 prostate
# [10] = system: EKVX NSCLC
# [11] = system: HCC-2998 colon
# [12] = system: HCT-116 colon
# [13] = system: HCT-15 colon
# [14] = system: HL-60(TB) leukemia
# [15] = system: HOP-62 NSCLC
# [16] = system: HOP-92 NSCLC
# [17] = system: HS 578T breast
# [18] = system: HT29 colon
# [19] = system: IGROV1 ovarian
# [20] = system: K-562 leukemia
# [21] = system: KM12 colon
# [22] = system: LOX IMVI melanoma
# [23] = system: M14 melanoma
# [24] = system: MALME-3M melanoma
# [25] = system: MCF7 breast
# [26] = system: MDA-MB-231 breast
# [27] = system: MDA-MB-435
# [28] = system: MDA-MB-468 breast
# [29] = system: MOLT-4 leukemia
# [30] = system: NCI-H226 lung
# [31] = system: NCI-H23 lung
# [32] = system: NCI-H460 lung
# [33] = system: NCI-H522 lung
# [34] = system: NCI/ADR-RES ovarian
# [35] = system: OVCAR-3 ovarian
# [36] = system: OVCAR-4 ovarian
# [37] = system: OVCAR-5 ovarian
# [38] = system: OVCAR-8 ovarian
# [39] = system: PC-3 prostate
# [40] = system: RPMI-8226 leukemia
# [41] = system: RXF 393 renal
# [42] = system: SF-268 CNS
# [43] = system: SF-295 CNS
# [44] = system: SF-539 CNS
# [45] = system: SK-MEL-2 melanoma
# [46] = system: SK-MEL-28 melanoma
# [47] = system: SK-MEL-5 melanoma
# [48] = system: SK-OV-3 ovarian
# [49] = system: SN12C renal
# [50] = system: SNB-19 CNS
# [51] = system: SNB-75 CNS
# [52] = system: SR leukemia
# [53] = system: SW-620 colon
# [54] = system: T-47D breast
# [55] = system: TK-10 renal
# [56] = system: U251 CNS
# [57] = system: UACC-257 melanoma
# [58] = system: UACC-62 melanoma
# [59] = system: UO-31 renal
smiles,measurement,setting,value
O=C(Nc1ccc(Cl)c(C(F)(F)F)c1)N1CCN(c2cc(-c3cn(-c4ccccc4)nc3-c3cccc(O)c3)ccn2)CC1,GI50,[1],4.02 µM
same,TGI,[1],> 22 µM
same,GI50,[2],4.72 µM
same,TGI,[2],21 µM
same,GI50,[3],4.34 µM
same,TGI,[3],> 22 µM
same,GI50,[4],3 µM
same,TGI,[4],17 µM
same,GI50,[5],3.33 µM
same,TGI,[5],7.99 µM
same,GI50,[6],4.18 µM
same,TGI,[6],19.4 µM
same,GI50,[7],1.59 µM
same,TGI,[7],9.71 µM
same,GI50,[8],3.01 µM
same,TGI,[8],9.39 µM
same,GI50,[9],7.15 µM
same,TGI,[9],> 22 µM
same,GI50,[10],2.57 µM
same,TGI,[10],19.6 µM
same,GI50,[11],6.1 µM
same,TGI,[11],> 22 µM
same,GI50,[12],1.86 µM
same,TGI,[12],> 22 µM
same,GI50,[13],2.84 µM
same,TGI,[13],> 22 µM
same,GI50,[14],2.34 µM
same,TGI,[14],8.58 µM
same,GI50,[15],6.28 µM
same,TGI,[15],> 22 µM
same,GI50,[16],2.59 µM
same,TGI,[16],15.9 µM
same,GI50,[17],3.39 µM
same,TGI,[17],15.8 µM
same,GI50,[18],4.1 µM
same,TGI,[18],> 22 µM
same,GI50,[19],5.11 µM
same,TGI,[19],> 22 µM
same,GI50,[20],2.13 µM
same,TGI,[20],> 22 µM
same,GI50,[21],3.34 µM
same,TGI,[21],15.2 µM
same,GI50,[22],2.99 µM
same,TGI,[22],6.52 µM
same,GI50,[23],3.03 µM
same,TGI,[23],12.5 µM
same,GI50,[24],3.3 µM
same,TGI,[24],8.95 µM
same,GI50,[25],1.8 µM
same,TGI,[25],10.1 µM
same,GI50,[26],3.07 µM
same,TGI,[26],7.57 µM
same,GI50,[27],2.29 µM
same,TGI,[27],6.33 µM
same,GI50,[28],1.03 µM
same,TGI,[28],7.22 µM
same,GI50,[29],0.93 µM
same,TGI,[29],7.58 µM
same,GI50,[30],3.22 µM
same,TGI,[30],15.8 µM
same,GI50,[31],3.69 µM
same,TGI,[31],14.9 µM
same,GI50,[32],2.47 µM
same,TGI,[32],> 22 µM
same,GI50,[33],2.77 µM
same,TGI,[33],9.26 µM
same,GI50,[34],2.91 µM
same,TGI,[34],11.9 µM
same,GI50,[35],1.76 µM
same,TGI,[35],11.5 µM
same,GI50,[36],2.02 µM
same,TGI,[36],> 22 µM
same,GI50,[37],4.13 µM
same,TGI,[37],10.5 µM
same,GI50,[38],4.72 µM
same,TGI,[38],> 22 µM
same,GI50,[39],0.967 µM
same,TGI,[39],17 µM
same,GI50,[40],1.21 µM
same,TGI,[40],11.8 µM
same,GI50,[41],2.42 µM
same,TGI,[41],9.79 µM
same,GI50,[42],3.3 µM
same,TGI,[42],> 22 µM
same,GI50,[43],1.5 µM
same,TGI,[43],7.25 µM
same,GI50,[44],4.21 µM
same,TGI,[44],> 22 µM
same,GI50,[45],3.54 µM
same,TGI,[45],7.56 µM
same,GI50,[46],3.41 µM
same,TGI,[46],10.3 µM
same,GI50,[47],2.58 µM
same,TGI,[47],5.45 µM
same,GI50,[48],6.43 µM
same,TGI,[48],> 22 µM
same,GI50,[49],3.21 µM
same,TGI,[49],> 22 µM
same,GI50,[50],4.06 µM
same,TGI,[50],> 22 µM
same,GI50,[51],0.634 µM
same,TGI,[51],11.1 µM
same,GI50,[52],3.07 µM
same,TGI,[52],> 22 µM
same,GI50,[53],4.78 µM
same,TGI,[53],> 22 µM
same,GI50,[54],1.13 µM
same,TGI,[54],14.8 µM
same,GI50,[55],5.92 µM
same,TGI,[55],> 22 µM
same,GI50,[56],4.23 µM
same,TGI,[56],> 22 µM
same,GI50,[57],4.77 µM
same,TGI,[57],14.3 µM
same,GI50,[58],2.68 µM
same,TGI,[58],5.77 µM
same,GI50,[59],3 µM
same,TGI,[59],> 22 µM
